Active and inactive are the calls of the source. No rule for the calls is given here.
test system: Broad 7084-01 inhibitor HTS, set 2; assay: inhibitors in Broad screen 7084-01, set 2 (AID 977613);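 also: host cells are infected with parasite promastigotes that become internalized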

Q: Which active concentration does the source give for `O=C(c1ccccc1F)N1CC(=O)N2[C@H](CO)[C@@H](c3ccc(C#Cc4ccccc4)cc3)[C@@H]2C1` here?
A: > 10 µM (inactive)

Q: For `Cc1nn(C)cc1NC(=O)C[C@H]1CC[C@@H]2[C@@H](COc3ccc(NC(=O)C4CCOCC4)cc3C(=O)N2C)O1`, which active concentration is on record?
A: > 10 µM (inactive)

Q: Which active concentration does the source give for `CC(C)CC#Cc1ccc([C@H]2[C@@H](CO)N3C(=O)CN(S(=O)(=O)c4cccc(F)c4)C[C@@H]23)cc1` here?
A: > 10 µM (inactive)

Q: Which active concentration does the source give for `CCS(=O)(=O)N1CC2(C1)[C@@H](c1ccccc1)[C@@H](CO)N2C(=O)c1ccccc1` here?
A: > 10 µM (inactive)

Q: For `CC(C)CC#Cc1ccc([C@H]2[C@H]3CN(S(=O)(=O)c4cccc(F)c4)CC(=O)N3[C@H]2CO)cc1`, which active concentration is on record?
A: > 10 µM (inactive)

Q: How did the active concentration turn out when `COc1ccccc1CNC(=O)C[C@@H]1CC[C@@H]2[C@H](COC[C@@H](O)CN2C(=O)Nc2ccccc2)O1` was run?
A: > 10 µM (inactive)

Q: How did the active concentration turn out when `O=C(C[C@H]1CC[C@@H]2[C@H](COC[C@H](O)CN2C(=O)Nc2ccc(Cl)c(Cl)c2)O1)NCc1ccc(Cl)cc1` was run?
A: > 10 µM (inactive)

Q: How did the active concentration turn out when `COc1ccc(NC(=O)N2CCCCN3[C@@H](CO)[C@H](c4ccc(-c5ccccc5F)cc4)[C@@H]3C2)cc1` was run?
A: > 10 µM (inactive)

Q: For `COc1ccc(-c2ccc3c(c2)[C@@H]2[C@@H](CCN2C(=O)CN2CCOCC2)[C@@H](CO)N3)cc1`, which active concentration is on record?
A: > 10 µM (inactive)

Q: How did the active concentration turn out when `CCC(=O)N1CC2(C1)[C@H](c1ccc(-c3ccc(C)cc3)cc1)[C@@H](CO)N2S(=O)(=O)CC` was run?
A: > 10 µM (inactive)

Q: `C/C=C/c1ccc([C@H]2[C@@H](CO)N3C(=O)CN(Cc4ccc(F)cc4)C[C@@H]23)cc1` was tested. Which active concentration did it give?
A: > 10 µM (inactive)

Q: How did the active concentration turn out when `CC(C)NC(=O)N1CC2(C1)[C@H](c1ccccc1)[C@@H](CO)N2CCC(F)(F)F` was run?
A: > 10 µM (inactive)

Q: Which active concentration does the source give for `COc1ccc2c3c(n(C)c2c1)[C@H](CO)N(S(=O)(=O)c1ccc(C)cc1)CC31CCN(C)CC1` here?
A: > 10 µM (inactive)

Q: `O=S(=O)(c1ccc(F)cc1)N1C[C@H]2[C@@H](c3ccccc31)[C@H](CO)N2Cc1ccc2c(c1)OCO2` was tested. Which active concentration did it give?
A: > 10 µM (inactive)

Q: `CCC(=O)N1CC2(C1)[C@@H](c1ccc(-c3cccc(C)c3)cc1)[C@H](CO)N2S(C)(=O)=O` was tested. Which active concentration did it give?
A: > 10 µM (inactive)

Q: With `CN1C(=O)c2cc(NC(=O)Cc3cccs3)ccc2OC[C@@H]2O[C@@H](CC(=O)N[C@@H]3CCN(Cc4ccccc4)C3)CC[C@H]21` as the compound, how does the active concentration read?
A: > 10 µM (inactive)

Q: With `COc1ccc2c3c([nH]c2c1)[C@@H](CO)N(C(=O)Nc1ccc(F)cc1)CC31CN(S(=O)(=O)c2ccc(C)cc2)C1` as the compound, how does the active concentration read?
A: > 10 µM (inactive)

Q: Which active concentration does the source give for `COc1cccc(CN2CCCCN3[C@H](C2)[C@H](c2ccc(-c4cccnc4)cc2)[C@@H]3CO)c1` here?
A: > 10 µM (inactive)

Q: For `Cc1cccc(S(=O)(=O)N2CC[C@@H]3[C@H](CO)Nc4ccc(C#Cc5ccccc5F)cc4[C@@H]32)c1`, which active concentration is on record?
A: > 10 µM (inactive)

Q: How did the active concentration turn out when `CCC(=O)N1CC(=O)N2[C@H](C1)[C@@H](c1ccc(-c3ccc(C#N)cc3)cc1)[C@@H]2CO` was run?
A: > 10 µM (inactive)

Q: Which active concentration does the source give for `O=C(C[C@@H]1CC[C@@H]2[C@H](COC[C@@H](O)CN2C(=O)Cc2ccccc2)O1)NC1CCCC1` here?
A: > 10 µM (inactive)

Q: For `CC(C)C#Cc1ccc([C@@H]2[C@H](CO)N3C(=O)CN(C(=O)c4ccc5c(c4)OCO5)C[C@@H]23)cc1`, which active concentration is on record?
A: > 10 µM (inactive)

Q: For `O=C(C[C@H]1CC[C@H]2[C@@H](COC[C@H](O)CN2S(=O)(=O)c2cccc(Cl)c2)O1)Nc1ccc(-c2ccccc2)cc1`, which active concentration is on record?
A: > 10 µM (inactive)

Q: With `COc1cccc(C#Cc2ccc([C@@H]3[C@@H](CO)N4C(=O)CN(C(=O)Cc5cccnc5)C[C@H]34)cc2)c1` as the compound, how does the active concentration read?
A: > 10 µM (inactive)

Q: With `CCCNC(=O)N1[C@@H](CO)[C@H](c2ccccc2)C12CN(C(=O)C1CCCCC1)C2` as the compound, how does the active concentration read?
A: > 10 µM (inactive)

Q: For `COc1ccc2c3c(n(C)c2c1)[C@H](CO)N(C(=O)Nc1ccccc1F)CC31CN(C(=O)c2ccccc2F)C1`, which active concentration is on record?
A: > 10 µM (inactive)

From PubChem BioAssay AID977613 (Broad Institute, 2014)
